Results reported in ChEMBL document CHEMBL5303573, “Mapping human microbiome drug metabolism by gut bacteria and their genes” (Nature, 2019).

Assays:
[1] = The drug is tested on Salmonella typhimurium strain: LT2 for biotransformation. The drug concentrations were measured before and after a 12-h incubation by liquid-chromatography-coupled mass spectrometry (LC–MS); conditions: salmonella enterica subsp. enterica, 2 µM
[2] = The drug is tested on the gut metagenome community of MV03 with ENA study accession number: PRJEB31790 and ENA sample accession number: SAMEA5537484 for biotransformation. The drug concentrations were measured over 9 timepoints collected between 0 and 24 hours of incubation by liquid-chromatography-coupled mass spectrometry (LC–MS); type: ADME; parameters: dose 2 uM, timepoint 0, 1, 2, 4, 6, 8, 12, 18, 24 hours; conditions: 2 µM
[3] = The drug is tested on the gut metagenome community of MV04 with ENA study accession number: PRJEB31790 and ENA sample accession number: SAMEA5537485 for biotransformation. The drug concentrations were measured over 9 timepoints collected between 0 and 24 hours of incubation by liquid-chromatography-coupled mass spectrometry (LC–MS); type: ADME; parameters: dose 2 uM, timepoint 0, 1, 2, 4, 6, 8, 12, 18, 24 hours; conditions: 2 µM
[4] = The drug is tested on the gut metagenome community of MV06 with ENA study accession number: PRJEB31790 and ENA sample accession number: SAMEA5537487 for biotransformation. The drug concentrations were measured over 9 timepoints collected between 0 and 24 hours of incubation by liquid-chromatography-coupled mass spectrometry (LC–MS); type: ADME; parameters: dose 2 uM, timepoint 0, 1, 2, 4, 6, 8, 12, 18, 24 hours; conditions: 2 µM
[5] = The drug is tested on the gut metagenome community of MV10 with ENA study accession number: PRJEB31790 and ENA sample accession number: SAMEA5537491 for biotransformation. The drug concentrations were measured over 9 timepoints collected between 0 and 24 hours of incubation by liquid-chromatography-coupled mass spectrometry (LC–MS); type: ADME; parameters: dose 2 uM, timepoint 0, 1, 2, 4, 6, 8, 12, 18, 24 hours; conditions: 2 µM
[6] = The drug is tested on the gut metagenome community of MV12 with ENA study accession number: PRJEB31790 and ENA sample accession number: SAMEA5537493 for biotransformation. The drug concentrations were measured over 9 timepoints collected between 0 and 24 hours of incubation by liquid-chromatography-coupled mass spectrometry (LC–MS); type: ADME; parameters: dose 2 uM, timepoint 0, 1, 2, 4, 6, 8, 12, 18, 24 hours; conditions: 2 µM
[7] = The drug is tested on the gut metagenome community of MV13 with ENA study accession number: PRJEB31790 and ENA sample accession number: SAMEA5537494 for biotransformation. The drug concentrations were measured over 9 timepoints collected between 0 and 24 hours of incubation by liquid-chromatography-coupled mass spectrometry (LC–MS); type: ADME; parameters: dose 2 uM, timepoint 0, 1, 2, 4, 6, 8, 12, 18, 24 hours; conditions: 2 µM
[8] = The drug is tested on the gut metagenome community of MV15 with ENA study accession number: PRJEB31790 and ENA sample accession number: SAMEA5537496 for biotransformation. The drug concentrations were measured over 9 timepoints collected between 0 and 24 hours of incubation by liquid-chromatography-coupled mass spectrometry (LC–MS); type: ADME; parameters: dose 2 uM, timepoint 0, 1, 2, 4, 6, 8, 12, 18, 24 hours; conditions: 2 µM
[9] = The drug is tested on the gut metagenome community of MV17 with ENA study accession number: PRJEB31790 and ENA sample accession number: SAMEA5537498 for biotransformation. The drug concentrations were measured over 9 timepoints collected between 0 and 24 hours of incubation by liquid-chromatography-coupled mass spectrometry (LC–MS); type: ADME; parameters: dose 2 uM, timepoint 0, 1, 2, 4, 6, 8, 12, 18, 24 hours; conditions: 2 µM
[10] = The drug is tested on the gut metagenome community of MV23 with ENA study accession number: PRJEB31790 and ENA sample accession number: SAMEA5537504 for biotransformation. The drug concentrations were measured over 9 timepoints collected between 0 and 24 hours of incubation by liquid-chromatography-coupled mass spectrometry (LC–MS); type: ADME; parameters: dose 2 uM, timepoint 0, 1, 2, 4, 6, 8, 12, 18, 24 hours; conditions: 2 µM
[11] = The drug is tested on the gut metagenome community of MV25 with ENA study accession number: PRJEB31790 and ENA sample accession number: SAMEA5537506 for biotransformation. The drug concentrations were measured over 9 timepoints collected between 0 and 24 hours of incubation by liquid-chromatography-coupled mass spectrometry (LC–MS); type: ADME; parameters: dose 2 uM, timepoint 0, 1, 2, 4, 6, 8, 12, 18, 24 hours; conditions: 2 µM

Row | SMILES | Bacterial Biotransformation [1] | Bacterial Biotransformation [2] | Bacterial Biotransformation [3] | Bacterial Biotransformation [4] | Bacterial Biotransformation [5] | Bacterial Biotransformation [6] | Bacterial Biotransformation [7] | Bacterial Biotransformation [8] | Bacterial Biotransformation [9] | Bacterial Biotransformation [10] | Bacterial Biotransformation [11]
1 | CN1[C@@H]2CC[C@H]1C[C@@H](OC(=O)C(CO)c1ccccc1)C2 (stereo not given in full) [ATROPINE] | Compound NOT metabolized | – | – | – | – | – | – | – | – | – | –
2 | COc1ccc([C@@H]2Sc3ccccc3N(CCN(C)C)C(=O)[C@@H]2OC(C)=O)cc1 [DILTIAZEM] | – | Compound NOT metabolized | Compound NOT metabolized | Compound NOT metabolized | Compound NOT metabolized | Compound NOT metabolized | Compound NOT metabolized | Compound NOT metabolized | Compound NOT metabolized | Compound NOT metabolized | Compound NOT metabolized
3 | CC(=O)OCC(CCn1cnc2cnc(N)nc21)COC(C)=O [FAMCICLOVIR] | – | Compound metabolized | Compound metabolized | Compound metabolized | Compound metabolized | Compound metabolized | Compound metabolized | Compound metabolized | Compound metabolized | Compound metabolized | Compound metabolized
4 | CC(CCc1ccccc1)NCC(O)c1ccc(O)c(C(N)=O)c1 (stereo not given) [LABETALOL] | Compound NOT metabolized | – | – | – | – | – | – | – | – | – | –
5 | COC(=O)Nc1nc2ccc(C(=O)c3ccccc3)cc2[nH]1 [MEBENDAZOLE] | Compound NOT metabolized | – | – | – | – | – | – | – | – | – | –
6 | COc1ccc2cc([C@H](C)C(=O)O)ccc2c1 [NAPROXEN] | Compound NOT metabolized | – | – | – | – | – | – | – | – | – | –
7 | C#C[C@]1(OC(C)=O)CC[C@H]2[C@@H]3CCC4=CC(=O)CC[C@@H]4[C@H]3CC[C@@]21C [NORETHINDRONE ACETATE] | – | Compound metabolized | Compound metabolized | Compound metabolized | Compound metabolized | Compound metabolized | Compound metabolized | Compound metabolized | Compound metabolized | Compound metabolized | Compound metabolized
8 | C#C[C@]1(OC(C)=O)CC[C@H]2[C@@H]3CCC4=C/C(=N/O)CC[C@@H]4[C@H]3CC[C@@]21CC [NORGESTIMATE] | Compound NOT metabolized | – | – | – | – | – | – | – | – | – | –
